Assay [1] in a line: Vitamin D therapy and K/DOQI guidelines on hospitalization outcomes in hemodialysis patients (cohort, negative binomial regression). In kind it is in vivo, human. The settings on record: for annual hospitalizations (HOSP) and hospital days (DAYS), NoD group compared with treated group: NoD (N=3007) vs P (N=1318) or C (N=1432), therapy at least 180 days. From the text:
An examination was made of the relationship between Vitamin D therapy and K/DOQI guidelines on hospitalization outcomes, as a surrogate for morbidity, in hemodialysis (HD) patients. The cohort consisted of U.S. patients who were new to HD during the period from January 1999 to December 2001 and who received paricalcitol (P), calcitriol (C) or no vitamin D (NoD) therapy for at least 180 days. To allow for patients to be stabilized after initiation to Vitamin D or NoD therapy, baseline laboratory values were defined over the initial 90-180 days of the observation period; mean values over this baseline period were assessed relative to K/DOQI guidelines. Patients with baseline laboratory measurements within K/DOQI guidelines served as reference groups. An interaction term was created to examine the relationship between Vitamin D therapy and the K/DOQI baseline assessment. Outcomes were defined by annual hospitalizations (HOSP) and hospital days (DAYS). Analysis was performed using negative binomial regression modeling.

Assay [2] in a line: Association of Vitamin D therapy, serum PTH and CaxP product quintiles with hospitalization outcomes in hemodialysis patients (cohort, negative binomial regression). In kind it is in vivo, human. The settings on record: for association between quintiles of PTH, CaxP and hospital outcomes (morbidity): interaction of laboratory quintiles and Vitamin D therapy. From the text: Elevated PTH and CaxP levels have been considered risk factors for increased mortality and morbidity (M&M) in HD patients. […] To date, the relationship between M&M, PTH, CaxP product and the impact of Vitamin D therapy, however, has not been addressed. Thus, by quintiles, an analysis was made of the baseline distribution of serum iPTH, and CaxP product levels in HD patients who received paricalcitol (P), calcitriol (C) or no Vitamin D (NoD) therapy in regard to their relationship with hospitalization outcomes as defined by hospitalizations per year (HOSP) and hospital days per year (DAYS). The cohort consisted of 11,340 adult patients new to HD between January 1999 and November 2001; there were 2,316 patients treated with P; 2,299 patients treated with C and 6,725 patients NoD.

For assay [3] the following is noted: recent data; cited from earlier work.

The values that follow come from patent publication US20050192256A1, “Methods of using vitamin D compounds in the treatment of patients undergoing hemodialysis” (priority 2003, published 2005).

As to `C=C1/C(=C\C=C2/CCC[C@]3(C)[C@@H]([C@H](C)CCCC(C)(C)O)CC[C@@H]23)C[C@@H](O)C[C@@H]1O` [calcitriol, 1α,25-dihydroxy-vitamin D3], in assay [1] (p<0.05), the “annual hospitalizations (HOSP) and hospital days (DAYS), NoD group compared with treated group” value was “significantly more HOSP and DAYS”. In assay [1] (interaction assessment, reference: patients within K/DOQI guidelines, p<0.05), the “increase in DAYS for patients outside of K/DOQI guidelines for Phos” value was 40%. In assay [2] (human, in vivo), the “DAYS in the 2nd quintile of CaxP compared to the reference group (3rd quintile)” value was “significantly fewer DAYS”. Also, in assay [2], the “association between quintiles of PTH, CaxP and hospital outcomes (morbidity)” value is recorded as “no significant associations”.

Turning to `C[C@H](/C=C/[C@H](C)C(C)(C)O)[C@H]1CC[C@H]2/C(=C/C=C3C[C@@H](O)C[C@H](O)C3)CCC[C@]12C` [paricalcitol, 19-nor-1α,3β,25-trihydroxy-9,10-secoergosta-5(Z); 7(E),22(E)-triene], the “survival in HD patients” value in assay [3] is “associated with survival benefit”. For the same molecule, in assay [1] (HOSP and DAYS), the “difference in outcomes for patients within K/DOQI guidelines compared to those outside of guidelines” value was “no significant difference”. Also, the “annual hospitalizations (HOSP) and hospital days (DAYS), NoD group compared with treated group” value in assay [1] (p<0.05) was “significantly more HOSP and DAYS”. In assay [1] (P vs C vs NoD), the “hospitalization outcomes, ranking among groups” value is “fewest hospitalization outcomes”. The “fewer DAYS (hospital days per year) compared to C group” value in assay [2] (2,316 patients P vs 2,299 C, p=0.0036) is given as 72%. For the same molecule, the “fewer DAYS (hospital days per year) compared to NoD group” value in assay [2] (2,316 patients P vs 6,725 NoD, p<0.0001) turned out to be 90%. The “association between quintiles of PTH, CaxP and hospital outcomes (morbidity)” value in assay [2] is “not associated with morbidity”.
